In patent US20260049104A1, “PEPTIDES WITH ANTIMICROBIAL PROPERTIES” (priority 2022, published 2026):
Converted amounts (≈) assume the structure as drawn. Where two headings read alike, the source gives them in different places. No end group written: not given here.

How the values were obtained:
[1] = tested on: Gram-positive and Gram-negative bacteria; conditions: panel of E. coli, K. pneumoniae, E. cloacae, A. baumannii, E. faecalis and S. aureus; preliminary screening
Description: (§1) MIC screening of the peptides against a panel of ATCC and clinical strains was performed using broth microdilution method.^1 Briefly, peptides stock solutions in DMSO (0.1/G TFA) were diluted into Mueller Hinton Broth (MHB), followed by two-fold serial dilution in a 96-well plate. Bacteria culture in mid-log phase was diluted into MHB to yield […] colony-forming units (CFU)/mL. Equal volume of the starting inoculum was added to the peptide samples, then incubated for 18-20 h (37° C., 120 rpm). OD600 of the samples was then measured using Tecan Infinite M200 (TECAN, Männedorf, Switzerland). MIC is defined as the lowest peptide concentration to achieve more than 90% reduction in OD600 relative to the drug-free control. The experiments were repeated three times. Colistin-resistant clinical isolates are a kind gift from Dr. Jeanette Koh (National University Hospital, Singapore). Multidrug-resistant clinical isolates are a kind gift from Dr. Lakshminarayanan Rajamani (Singapore Eye Research Institute, Singapore).
(§2) Kanamycin and ampicillin were used as antibacterial control agents. […] Then, sequential 2-fold serial dilutions of the mix were diluted in 50 μL MH broth and 50 μL cell cultures were added to wells. […] All assays were carried out in triplicate.

Klebsiella pneumoniae = conditions: for MIC value: Table 15, unit inferred
Description: as §1, §2

Escherichia coli = conditions: for MIC value: Table 15, unit inferred
Description: as §1, §2

Acinetobacter baumannii = conditions: Table 15, unit inferred
Description: as §1, §2

Enterobacter cloacae = conditions: Table 15, unit inferred
Description: as §1, §2

Pseudomonas aeruginosa = assay type: cell-based; conditions: Table 15, unit inferred
Excerpt: The experiments were repeated three times.

E. coli M6 = conditions: E. coli M6, compared with xenorceptide A2 (2)
Description: Resistance development of E. coli M6 against xenorceptide A2 was assessed by serial passaging of the bacteria in broth containing subinhibitory concentrations of the peptide. In brief, bacteria culture at mid-log phase was diluted to 10^5-10^6 CFU/mL in MHB containing 0.25×, 0.5×, 1×, 2×, and 4×MIC of the peptide. […] A new set of peptide concentration range was added to the cultures based on the latest MIC. This process was repeated over 14 days for three independent starting cultures.

Question: `CC(C)[C@H](NC(=O)[C@H](Cc1c[nH]c2ccccc12)NC(=O)CNC(=O)[C@H](CCC(=O)O)NC(=O)CNC(=O)[C@@H](N)CCCNC(=N)N)C(=O)N[C@@H](CCCNC(=N)N)C(=O)N[C@@H](C)C(=O)N[C@@H](Cc1ccc(O)cc1)C(=O)N[C@H]1Cc2c[nH]c3cc(ccc23)C(CCCN)[C@@H](C(=O)N[C@@H](CCCNC(=N)N)C(=O)N[C@@H](Cc2ccccc2)C(=O)O)NC(=O)[C@H](C)NC1=O` (some centres unmarked) [Compound 25] was tested. Which antibacterial activity [1] did it give?
Answer: The antibacterial activity was “also active against these test bacteria, but weaker than 24”.

Question: Which MIC (Klebsiella pneumoniae; Klebsiella pneumoniae ATC 700603, Table 14, preliminary screening) does the source give for `CC[C@H](C)[C@@H]1NC(=O)[C@@H](NC(=O)[C@H]2NC(=O)[C@H](CC(C)C)NC(=O)[C@@H](NC(=O)[C@H](CCCNC(=N)N)NC(=O)CNC(=O)[C@@H](N)CC(=O)O)Cc3c[nH]c4cc(ccc34)C2CC(N)=O)Cc2c[nH]c3cc(ccc23)C(CCCN)[C@@H](C(=O)N[C@@H](CC(N)=O)C(=O)N[C@@H](Cc2c[nH]cn2)C(=O)O)NC1=O` (some centres unmarked) [Compound 27] here?
Answer: The MIC was 8 µg/mL (≈ 5.52 µM).

Question: `CC(C)[C@@H]1NC(=O)[C@@H](N)Cc2c[nH]c3cc(ccc23)C(C(N)=O)[C@@H](C(=O)N[C@@H](C)C(=O)N[C@H]2Cc3cccc(c3)C(CCNC(=N)N)[C@@H](C(=O)N[C@H]3Cc4c[nH]c5cc(ccc45)C(CCCN)[C@@H](C(=O)N[C@@H](CCCNC(=N)N)C(=O)N[C@@H](Cc4ccccc4)C(=O)O)NC(=O)[C@H](CO)NC3=O)NC(=O)[C@H](C)NC2=O)NC1=O` (some centres unmarked) [xenorceptide A12-2] was tested. Which MIC value (Escherichia coli; Escherichia coli M2) did it give?
Answer: The MIC value was 4 µg/mL (≈ 2.56 µM).

Question: What about the MIC value (Escherichia coli; Escherichia coli M6) of the same molecule?
Answer: The MIC value was 2 µg/mL (≈ 1.28 µM).

Question: And the MIC value (Escherichia coli; Escherichia coli M10)?
Answer: The MIC value was 2 µg/mL (≈ 1.28 µM).

Question: What about the MIC value (Escherichia coli; Escherichia coli M11) of the same molecule?
Answer: The MIC value was 4 µg/mL (≈ 2.56 µM).

Question: And the MIC value (Klebsiella pneumoniae; ATCC 25922, printed under Klebsiella pneumoniae)?
Answer: The MIC value was 1 µg/mL (≈ 0.64 µM).

Question: And the MIC value (Klebsiella pneumoniae; CRE1006, Klebsiella pneumoniae)?
Answer: Its MIC value is 2 µg/mL (≈ 1.28 µM).

Question: And the MIC value (Klebsiella pneumoniae; Klebsiella pneumoniae CRE 1007)?
Answer: Its MIC value is 4 µg/mL (≈ 2.56 µM).

Question: What about the MIC value (Klebsiella pneumoniae; Klebsiella pneumoniae CRE1008) of the same molecule?
Answer: Its MIC value is 4 µg/mL (≈ 2.56 µM).

Question: And the MIC value (Klebsiella pneumoniae; Klebsiella pneumoniae CRE1011)?
Answer: The MIC value was 8 µg/mL (≈ 5.12 µM).

Question: What about the MIC value (Klebsiella pneumoniae; Klebsiella pneumoniae CRE1012) of the same molecule?
Answer: The MIC value was 4 µg/mL (≈ 2.56 µM).

Question: What about the MIC value (Acinetobacter baumannii; Acinetobacter baumanii ACβA1001) of the same molecule?
Answer: The MIC value was 16 µg/mL (≈ 10.2 µM).

Question: And the MIC value (Acinetobacter baumannii; Acinetobacter baumanii ACβA1002)?
Answer: Its MIC value is 8 µg/mL (≈ 5.12 µM).

Question: What about the MIC value (Acinetobacter baumannii; Acinetobacter baumanii ACβA1003) of the same molecule?
Answer: The MIC value was 16 µg/mL (≈ 10.2 µM).

Question: What about the MIC value (Acinetobacter baumannii; Acinetobacter baumanii ACβA1004) of the same molecule?
Answer: The MIC value was 16 µg/mL (≈ 10.2 µM).

Question: And the MIC value (Enterobacter cloacae; Enterobacter cloacae CRE1010)?
Answer: The MIC value was 2 µg/mL (≈ 1.28 µM).

Question: What about the MIC value (Enterobacter cloacae; Enterobacter cloacae CRE1014) of the same molecule?
Answer: The MIC value was 32 µg/mL (≈ 20.5 µM).

Question: What about the MIC value (Enterobacter cloacae; Enterobacter cloacae CRE1015) of the same molecule?
Answer: The MIC value was 16 µg/mL (≈ 10.2 µM).

Question: What about the MIC value (Enterobacter cloacae; Enterobacter cloacae CRE1016) of the same molecule?
Answer: Its MIC value is 16 µg/mL (≈ 10.2 µM).

Question: What about the MIC value (Enterobacter cloacae; Enterobacter cloacae CRE1017) of the same molecule?
Answer: The MIC value was 32 µg/mL (≈ 20.5 µM).

Question: And the MIC value (Pseudomonas aeruginosa; Pseudomonas aeruginosa DM4150R)?
Answer: The MIC value was 32 µg/mL (≈ 20.5 µM).

Question: And the MIC value (Pseudomonas aeruginosa; Pseudomonas aeruginosa DM23376)?
Answer: The MIC value was 32 µg/mL (≈ 20.5 µM).

Question: And the MIC value (Pseudomonas aeruginosa; Pseudomonas aeruginosa DR4877/07)?
Answer: Its MIC value is 32 µg/mL (≈ 20.5 µM).

Question: What about the MIC value (Pseudomonas aeruginosa; Pseudomonas aeruginosa DR5790/07) of the same molecule?
Answer: Its MIC value is 32 µg/mL (≈ 20.5 µM).

Question: Which antibacterial activity [1] does the source give for `C[C@H](NC(=O)[C@H]1NC(=O)[C@H](C)NC(=O)[C@@H](N)Cc2ccc(cc2)C1C(N)=O)C(=O)N[C@H](C(=O)N[C@H]1Cc2c[nH]c3cc(ccc23)C(CCCN)[C@@H](C(=O)N[C@@H](CO)C(=O)N[C@@H](Cc2ccccc2)C(=O)O)NC(=O)[C@H](CO)NC1=O)[C@@H](C)O` (some centres unmarked) [Compound 30] here?
Answer: The antibacterial activity was “no activity”.

Question: How did the antibacterial activity [1] turn out when `C[C@H](NC(=O)[C@H](CC(N)=O)NC(=O)[C@H](C)NC(=O)[C@@H](N)Cc1ccccc1)C(=O)N[C@H](C(=O)N[C@H]1Cc2c[nH]c3cc(ccc23)C(CCCN)[C@@H](C(=O)N[C@@H](CO)C(=O)N[C@@H](Cc2ccccc2)C(=O)O)NC(=O)[C@H](CO)NC1=O)[C@@H](C)O` (some centres unmarked) [Compound 31] was run?
Answer: Its antibacterial activity is “no activity”.

Question: colistin [reference compound] was tested. Which “development of reduced susceptibility in serial passage” value (E. coli M6) did it give?
Answer: Its value is “readily became less susceptible”.

Question: Which “MIC (E. coli)” value (Escherichia coli; strain not stated, product produced and tested against E. coli) does the source give for WVNAYARWTKRF [SEQ ID 26] here?
Answer: The value was 8 µg/mL.
